This note sets out measurements from patent US10604523B2, “1-aryl-4-methyl-[1,2,4]triazolo[4,3-a]quinoxaline derivatives” (Janssen Pharmaceutica NV, priority 2011, dated 2020).

The target of test [1] is T1, Human recombinant PDE2A (hPDE2A) (Homo sapiens, UniProt O00408).
T1 construct: made in house; host or cells: Sf9 insect cells (baculovirus)
The test can be described thus: In vitro assay PDE2A (SPA, 3H-cGMP). Type of test: biochemical. Conditions: read-out: pIC50 PDE2 (converted).
Description: Tested compounds were dissolved and diluted in 100% DMSO to a concentration 100 fold of the final concentration in the assay. Compound dilutions (0.4 μl) were added in 384 well plates to 20 μl of incubation buffer (50 mM Tris pH 7.8, 8.3 mM MgCl2, 1.7 mM EGTA). 10 μl of hPDE2A enzyme in incubation buffer was added and the reaction was started by addition of 10 μl substrate to a final concentration of 10 μM cGMP and 0.01 μCi ^3H-cGMP. The reaction was incubated for 45 minutes at room temperature. […] After sedimentation of the beads during 30 minutes the radioactivity was measured in a Perkin Elmer Topcount scintillation counter and results were expressed as cpm. For blanc values the enzyme was omitted from the reaction and replaced by incubation buffer. Control values were obtained by addition of a final concentration of 1% DMSO instead of compound.

The target of test [2] is T2, Rat recombinant PDE10A (rPDE10A2) (Rattus norvegicus, UniProt Q9QYJ6).
T2 construct: made in house; host or cells: Sf9 insect cells (baculovirus)
T2 sequence (Q9QYJ6 1-794): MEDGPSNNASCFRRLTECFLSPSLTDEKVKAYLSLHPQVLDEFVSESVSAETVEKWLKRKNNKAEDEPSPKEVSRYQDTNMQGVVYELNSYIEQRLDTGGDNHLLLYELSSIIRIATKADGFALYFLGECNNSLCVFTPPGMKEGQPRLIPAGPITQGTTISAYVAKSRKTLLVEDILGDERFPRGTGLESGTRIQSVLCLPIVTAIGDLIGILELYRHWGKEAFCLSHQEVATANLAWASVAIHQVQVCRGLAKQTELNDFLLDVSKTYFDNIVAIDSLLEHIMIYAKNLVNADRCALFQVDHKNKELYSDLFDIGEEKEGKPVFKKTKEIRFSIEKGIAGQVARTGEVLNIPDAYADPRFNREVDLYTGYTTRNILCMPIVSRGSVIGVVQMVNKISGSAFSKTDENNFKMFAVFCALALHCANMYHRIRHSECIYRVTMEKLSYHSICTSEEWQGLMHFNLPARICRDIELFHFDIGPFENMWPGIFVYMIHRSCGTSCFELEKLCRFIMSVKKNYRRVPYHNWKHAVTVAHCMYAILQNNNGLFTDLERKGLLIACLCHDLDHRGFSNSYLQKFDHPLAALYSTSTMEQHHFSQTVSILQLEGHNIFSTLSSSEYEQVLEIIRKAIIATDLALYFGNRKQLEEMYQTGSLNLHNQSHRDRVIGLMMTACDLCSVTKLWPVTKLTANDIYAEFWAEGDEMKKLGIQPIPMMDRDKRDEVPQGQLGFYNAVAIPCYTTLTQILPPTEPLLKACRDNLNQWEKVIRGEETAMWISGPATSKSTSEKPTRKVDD
The test can be described thus: In vitro assay PDE10A (SPA, 3H-cAMP). Format: biochemical. Conditions: read-out: PIC50 PDE10 (converted).

Each structure is given as a SMILES string.

T1 sequence (O00408 whole entry): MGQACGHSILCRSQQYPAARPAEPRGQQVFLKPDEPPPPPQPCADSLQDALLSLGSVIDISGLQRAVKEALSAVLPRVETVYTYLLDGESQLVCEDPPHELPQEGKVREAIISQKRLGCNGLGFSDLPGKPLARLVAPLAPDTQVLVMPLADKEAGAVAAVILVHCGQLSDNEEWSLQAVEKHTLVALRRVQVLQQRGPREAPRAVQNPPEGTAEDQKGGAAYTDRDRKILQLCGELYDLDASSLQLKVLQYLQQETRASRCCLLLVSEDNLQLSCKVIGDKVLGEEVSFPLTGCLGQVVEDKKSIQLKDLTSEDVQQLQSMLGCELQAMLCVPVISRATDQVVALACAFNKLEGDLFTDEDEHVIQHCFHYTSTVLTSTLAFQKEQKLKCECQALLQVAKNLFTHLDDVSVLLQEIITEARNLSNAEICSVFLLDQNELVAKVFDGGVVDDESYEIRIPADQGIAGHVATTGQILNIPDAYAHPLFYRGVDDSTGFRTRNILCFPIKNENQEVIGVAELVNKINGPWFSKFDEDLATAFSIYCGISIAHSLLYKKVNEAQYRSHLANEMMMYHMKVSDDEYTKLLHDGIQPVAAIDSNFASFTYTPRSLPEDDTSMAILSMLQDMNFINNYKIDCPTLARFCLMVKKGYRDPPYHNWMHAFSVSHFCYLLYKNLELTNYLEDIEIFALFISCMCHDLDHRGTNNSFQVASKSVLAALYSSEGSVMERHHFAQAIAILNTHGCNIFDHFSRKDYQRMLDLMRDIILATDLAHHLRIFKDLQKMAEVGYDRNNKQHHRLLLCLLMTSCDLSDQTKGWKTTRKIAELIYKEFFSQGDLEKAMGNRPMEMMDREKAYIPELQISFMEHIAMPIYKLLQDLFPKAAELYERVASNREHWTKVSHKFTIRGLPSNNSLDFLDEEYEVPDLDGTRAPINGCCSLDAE

Regarding `CCNC(c1ccc2nc(C)c3nnc(-c4ccccc4Cl)n3c2c1)C(F)(F)F` (stereo not drawn) [Compound B-64], the results for the IC50 in test [1] and in test [2] were 5.75 nM and 30.2 nM, respectively.
As to `CCCCOc1cncc(-c2nnc3c(C)nc4ccc(CN5CCCC5)cc4n23)c1` [Compound B-206], the IC50 in test [1] was 135 nM; in test [2] it was more than 10000 nM.
`Cc1nc2ccc(Br)cc2n2c(-c3cccc(Cl)c3Cl)nnc12` [Compound B-166]: the IC50 in test [1] is 95.5 nM; in test [2] it was 282 nM.
For `Cc1nc2ccc(CN3CCN(C)CC3)cc2n2c(-c3cc(OC(C)C)ccc3Cl)nnc12` [Compound B-170], in that order: 102 nM and 3630 nM.
For `COCCCc1cncc(-c2nnc3c(C)nc4ccc(CN5CCOCC5)cc4n23)c1` [Compound B-204], in that order: 132 nM and 8130 nM.
As for `CCCCOc1ccc(Cl)c(-c2nnc3c(C)nc4ccc(OCCc5cccnc5)cc4n23)c1` [Compound B-130], the IC50 in test [1] was 28.8 nM; in test [2], 977 nM.
For `Cc1nc2ccc(C(=O)NCc3cc(F)ccn3)cc2n2c(-c3ccccc3Cl)nnc12` [Compound B-31], the IC50 was 0.204 nM in test [1] and 8.13 nM in test [2].
For `COc1cncc(-c2nnc3c(C)nc4ccc(OC(F)(F)F)cc4n23)c1` [Compound B-165], in that order: 81.3 nM and 501 nM.
Consider `Cc1cncc(-c2nnc3c(C)nc4ccc(C(F)(F)F)cc4n23)c1` [Compound B-162], for which the IC50 in test [1] is 67.6 nM; in test [2], 871 nM.
As for `Cc1nc2ccc(CN3CCC(F)CC3)cc2n2c(-c3cncc(OCC4CC4)c3)nnc12` [Compound B-199], the IC50 in test [1] was 89.1 nM; in test [2], 3890 nM.
The like results for `CCCOc1cncc(-c2nnc3c(C)nc4ccc(CNC5CCC5)cc4n23)c1` [Compound B-209] were, in that order, 302 nM and more than 10000 nM.
For `Cc1nc2ccc(CN3CCC(F)CC3)cc2n2c(-c3cc(OC(C)C)ccc3Cl)nnc12` [Compound B-134], in that order: 30.2 nM and 1100 nM.
For `CCCOc1ccc(Cl)c(-c2nnc3c(C)nc4ccc(CNc5cccnc5)cc4n23)c1` [Compound B-138], in that order: 33.9 nM and 708 nM.
On to `Cc1nc2ccc(C(=O)C3CC3)cc2n2c(-c3ccccc3Cl)nnc12` [Compound B-144], for which the IC50 in test [1] is 4.47 nM; in test [2] it was 31.6 nM.
For `COCCNC(=O)c1ccc2nc(C)c3nnc(-c4ccccc4Cl)n3c2c1` [Compound B-37], the IC50 in test [1] was 0.631 nM; in test [2] it was 20.4 nM.
The like results for `COCCC1CN(Cc2ccc3nc(C)c4nnc(-c5ccccc5Cl)n4c3c2)CCO1` (stereo not drawn) [Compound B-106] were, in that order, 19.5 nM and 89.1 nM.
The like results for `CCC(=O)Nc1ccc2nc(C)c3nnc(-c4ccccc4Cl)n3c2c1` [Compound B-28, N-[1-(2-Chlorophenyl)-4-methyl[1,2,4]triazolo[4,3-a]quinoxalin-8-yl]propanamide] were, in that order, 2.29 nM and 13.2 nM.
The like results for `Cc1nc2ccc(C(=O)OCCCc3ccccc3)cc2n2c(-c3ccccc3)nnc12` [Compound B-158] were, in that order, 60.3 nM and 603 nM.
On to `Cc1nc2ccc(OCCc3cccnc3)cc2n2c(-c3cc(OC(C)C)ccc3Cl)nnc12` [Compound B-146], for which the IC50 in test [1] is 40.7 nM; in test [2], 1020 nM.
In the case of `CCNC(=O)c1ccc2c(c1)nc(C)c1nnc(-c3cncc(OC)c3)n12` [Compound B-172], the IC50 is 126 nM in test [1] and 7760 nM in test [2].
The like results for `Cc1nc2ccc(Br)cc2n2c(-c3ccccc3OC(F)(F)F)nnc12` [Compound B-159] were, in that order, 60.3 nM and 347 nM.
For `CCCCOc1ccc(Cl)c(-c2nnc3c(C)nc4ccc(CN5CCCC5)cc4n23)c1` [Compound B-79], in that order: 8.13 nM and 1910 nM.
For `CCNC(=O)c1ccc2c(c1)nc(C)c1nnc(-c3cccnc3C)n12` [Compound B-169], in that order: 102 nM and 2820 nM.
Turning to `COc1cncc(-c2nnc3c(C)nc4ccc(Br)cc4n23)c1` [Compound B-124], the IC50 in test [1] was 27.5 nM; in test [2] it was 355 nM.
The like results for `Cc1nc2ccc(C(=O)OCc3ccccc3)cc2n2c(-c3ccccc3)nnc12` [Compound B-8, Benzyl 4-methyl-1-phenyl[1,2,4]triazolo[4,3-a]quinoxaline-8-carboxylate] were, in that order, 20.4 nM and 380 nM.
For `Cc1nc2ccc(COc3ccccc3)cc2n2c(-c3ccccc3)nnc12` [Compound B-98], in that order: 14.5 nM and 191 nM.
For `CCNC(=O)c1ccc2c(c1)nc(C)c1nnc(-c3cccnc3OC)n12` [Compound B-180], in that order: 204 nM and 1780 nM.
Consider `Cc1nc2ccc(C(=O)OCCc3ccccc3)cc2n2c(-c3ccccc3)nnc12` [Compound B-122], for which the figures for the IC50 in test [1] and in test [2] were 27.5 nM and 331 nM, respectively.
For `COc1ccc2nc(C)c3nnc(-c4ccccc4OC(F)(F)F)n3c2c1` [Compound B-164], in that order: 69.2 nM and 2510 nM.
With `Cc1nc2ccc(CNC3CCC3)cc2n2c(-c3cncc(OCC4CC4)c3)nnc12` [Compound B-207], the results for the IC50 in test [1] and in test [2] were 240 nM and more than 10000 nM, respectively.
For `CCCCOc1ccc(Cl)c(-c2nnc3c(C)nc4ccc(CN5CCC(F)CC5)cc4n23)c1` [Compound B-132], in that order: 29.5 nM and 1780 nM.
For `Cc1nc2ccc(N)cc2n2c(-c3ccccc3Cl)nnc12` [Compound B-27, 1-(2-Chlorophenyl)-4-methyl[1,2,4]triazolo[4,3-a]quinoxalin-8-amine], in that order: 2.34 nM and 29.5 nM.
As to `CCOCc1cncc(-c2nnc3c(C)nc4ccc(CN5CCOCC5)cc4n23)c1` [Compound B-194], the IC50 in test [1] was 29.5 nM; in test [2] it was 7760 nM.
The like results for `Cc1nc2ccc(CN3CCC(N(C)C)CC3)cc2n2c(-c3ccccc3Cl)nnc12` [Compound B-157] were, in that order, 57.5 nM and 282 nM.
The like results for `CCNC(=O)c1ccc2nc(C)c3nnc(-c4ccccn4)n3c2c1` [Compound B-181] were, in that order, 240 nM and 5500 nM.
For `CCCOc1ccc(Cl)c(-c2nnc3c(C)nc4ccc(CN5CCC(O)CC5)cc4n23)c1` [Compound B-129], in that order: 28.8 nM and 891 nM.
For `CCCCOc1ccc(Cl)c(-c2nnc3c(C)nc4ccc(CNC5CCC5)cc4n23)c1` [Compound B-126], the IC50 in test [1] is 28.2 nM; in test [2], 2450 nM.
The like results for `CCCOc1ccc(Cl)c(-c2nnc3c(C)nc4ccc(OCCc5cccnc5)cc4n23)c1` [Compound B-116] were, in that order, 24.5 nM and 513 nM.
For `Cc1nc2ccc(CN3CCOCC3)cc2n2c(-c3cncc(OCCF)c3)nnc12` [Compound B-195], the IC50 in test [1] is 42.7 nM; in test [2], 3550 nM.
In the case of `Cc1nc2ccc(Br)cc2n2c(-c3cncc(Cl)c3)nnc12` [Compound B-171], the figures for the IC50 in test [1] and in test [2] were 117 nM and 741 nM, respectively.
For `COC1CCCN(Cc2ccc3nc(C)c4nnc(-c5ccccc5Cl)n4c3c2)C1` (stereo not drawn) [Compound B-86], in that order: 11 nM and 38 nM.
For `CCCCOc1cncc(-c2nnc3c(C)nc4ccc(CN5CCC(F)CC5)cc4n23)c1` [Compound B-201], in that order: 95.5 nM and 5130 nM.
For `COCCc1cncc(-c2nnc3c(C)nc4ccc(CN5CCOCC5)cc4n23)c1` [Compound B-198], in that order: 89.1 nM and 5890 nM.
On to `COc1cncc(-c2nnc3c(C)nc4ccc(C(F)(F)F)cc4n23)c1` [Compound B-163], for which the IC50 in test [1] was 69.2 nM; in test [2], 1150 nM.
Regarding `Cc1nc2ccc(Br)cc2n2c(-c3cc(OC(C)C)ccc3Cl)nnc12` [Compound B-100], the results for the IC50 in test [1] and in test [2] were 14.8 nM and 1230 nM, respectively.
Consider `CCCCOc1cncc(-c2nnc3c(C)nc4ccc(Br)cc4n23)c1` [Compound B-7, 8-Bromo-1-(5-butoxypyridin-3-yl)-4-methyl[1,2,4]triazolo[4,3-a]quinoxaline], for which the results for the IC50 in test [1] and in test [2] were 18.6 nM and 3390 nM, respectively.
For `Cc1nc2ccc(CNc3cccnc3)cc2n2c(-c3cc(OC(C)C)ccc3Cl)nnc12` [Compound B-133], in that order: 30.2 nM and 1230 nM.
For `Cc1nc2ccc(N(C)C)cc2n2c(-c3ccccc3Cl)nnc12` [Compound B-87], in that order: 11.2 nM and 26.9 nM.
